From patent publication US12215104B2, “Anti-biofilm compounds” (UNIVERSITY OF LOUISVILLE RESEARCH FOUNDATION, INC., priority 2018, dated 2025)
Like-named read-outs stand apart in the source and are kept apart here.

Experiments:
[1] = system: gingival keratinocytes; assay: Induction of apoptosis in gingival keratinocytes; format: cell-based
[2] = system: P. gingivalis adherence to S. gordonii; assay: Inhibition of P. gingivalis adherence to S. gordonii in two-species biofilm model; format: cell-based, P. gingivalis ATCC33277; S. gordonii DL-1
Description: (§1) To assess the functional activity of the click products, compounds 28-57 (Groups I and II) and 90-124 (Group III) were examined for inhibition of P. gingivalis adherence to S. gordonii using an established biofilm model system as described in the Section 4.2.1 [41]. For each compound tested, an IC50 value for adherence inhibition was approximated after quantifying the ratio of green to red fluorescence and these values are shown in Tables 2, 3 and 4. Compounds were classified as strong (IC50<10 μM), moderate (IC50=10-20 μM) or weak (IC50>20 μM) inhibitors of adherence. Twelve compounds were identified as strong inhibitors and an additional ten compounds were classified as moderate inhibitors. […] Compounds 54, 56, 93, 95, 100, 102, 103, and 115 were also tested to determine if they affect the growth of P. gingivalis or S. gordonii. […] The sulfoxide group does impart asymmetry to the molecule; however, the mixture of enantiomers, assuming the peracid oxidation was racemic, was not separated and bioassayed. The Group III active compounds (95-117) all contain the 1,3,5-trisubstituted-2,4,6-triazine modeled after the Katzenellenbogen rendering of an active motif whereby the key leucine residues which mimicked the VXXLL receptor box lie in a triangular arrangement. While the original iteration of the Katzenellenbogen VXXLL mimics were the hydrophobic 3,5-disubstituted-di-N-alkyamino-triazine motifs, we introduced the hydrophobic 2- and 4-(fluorophenyl)amino groups at positions 3 and 5 of the 2,4,6-triazine (See Compounds 102, 111, 115, 122).
(§2) P. gingivalis ATCC33277 was grown in reduced trypticase soy broth (Difco) supplemented with 0.5 percent yeast extract, 1 μg/mL menadione, and 5 μg/mL hemin. Twenty five milliliters of medium were reduced for 24 h under anaerobic conditions by equilibrating in an atmosphere consisting of 10% CO2, 10% H2, and 80% N2. Following equilibration, P. gingivalis was inoculated in the media and grown for 48 h at 37° C. under anaerobic conditions. S. gordonii DL-1 (1) was cultured aerobically without shaking in brain heart infusion (BHI) broth supplemented with 1 percent yeast extract for 16 hours at 37° C. For some compounds that inhibited P. gingivalis adherence to S. gordonii, we determined their affect the planktonic growth of P. gingivalis and S. gordonii. Broth cultures were grown as described above and compared to cultures grown in the absence of the compound. Cell density of each culture was determined by measuring the optical density at 600 nm (O.D.600 nm) after 24 h of growth. The percent growth inhibition/stimulation was calculated using the following equation: [(O.D.600 nm of the control/O.D.600 nm of the culture grown in the presence of compound)−1]×100.
Two species biofilms were formed essentially as previously described. To prepare bacterial cells for biofilm culture, 10 ml of an overnight S. gordonii culture was centrifuged at 5600 rpm for 5 min and the cell pellet was suspended in 1 mL sterile PBS. Subsequently, 20 μL of 5 mg/ml hexidium iodide (Molecular Probes) was added to the cell suspension and incubated for 15 min with gentle shaking at room temperature in the dark. The labeled cells were centrifuged as described above, washed with phosphate buffered saline (10 mM Na2HPO4, […], […], and 2.7 mM KCl, pH 7.2; [PBS]) and the cell pellet was suspended in PBS at a final O.D.600 nm of 0.8. Similarly, 10 mL of a 48 h culture of P. gingivalis was centrifuged at 5600 rpm for 15 min, the cell pellet was suspended in 1 mL PBS and 20 μl of 5(6)-carboxyfluorescein N-hydroxysuccinimide ester (4 mg/ml, Molecular Probes, Inc.) was added. After incubation for 30 min with gentle shaking at room temperature in the dark, the suspension was centrifuged and washed as described above and suspended in PBS at a final O.D.600 nm of 0.4. […]

[3] = system: pre-existing 3-species biofilm; assay: Disruption of a pre-existing 3-species biofilm in vitro; format: cell-based; conditions: 20 μM
[4] = system: S. gordonii; assay: Effect on planktonic growth of S. gordonii; format: cell-based, S. gordonii DL-1; conditions: incubated overnight in the presence of 40 μM compound
Description: as §1, §2

[5] = system: P. gingivalis; assay: Effect on planktonic growth of P. gingivalis; format: cell-based, P. gingivalis ATCC33277; conditions: incubated overnight in the presence of 40 μM compound
Description: as §1, §2

[6] = read-out: IC50 for inhibition of adherence of P. gingivalis to S. gordonii
[7] = Table 3, Group II click products, concentration reducing green to red fluorescence ratio by 50%, approximated
[8] = Table 2, Group I triazoles, concentration reducing ratio of green (P. gingivalis) to red (S. gordonii) fluorescence by 50%, approximated

`OO` [Compound H2O2, H2O2, reference compound] gave an early apoptosis ([1]; 4 mM 1 h, positive control) of 35.60, a late apoptosis ([1]; 4 mM 1 h, positive control) of 41.50 and a live cells ([1]; 4 mM 1 h, positive control) of 11.30.
`Fc1ccc(Nc2nc(Nc3ccc(F)cc3)nc(-c3cn(-c4ccc(-c5nc(-c6ccc(F)cc6)c(-c6ccc(F)cc6)o5)cc4)nn3)n2)cc1` [Compound 115] was tested, and the IC50 ([2]; Group III) was 2.3 µM, the IC50 [2, 6] was 2.3 to 5.3 µM and the “disruption of pre-existing 3-species biofilm” value (shortened to “disruption”) ([3]; time treated 1 h) was 15.26. For the same molecule, the “disruption” value ([3]; time treated 2 h) was 45.62, the “disruption” value ([3]; time treated 3 h) was 76.06 and the early apoptosis ([1]; 5 μM, gingival keratinocytes) was 3.89. For the same molecule, the late apoptosis ([1]; 5 μM, gingival keratinocytes) was 4.21, the live cells ([1]; 5 μM, gingival keratinocytes) was 87.85 and the early apoptosis ([1]; 10 μM, gingival keratinocytes) was 4.07. The late apoptosis ([1]; 10 μM, gingival keratinocytes) was 2.47, the live cells ([1]; 10 μM, gingival keratinocytes) was 91.25 and the early apoptosis ([1]; 20 μM, gingival keratinocytes) was 4.06. For the same molecule, the late apoptosis ([1]; 20 μM, gingival keratinocytes) was 2.80, the live cells ([1]; 20 μM, gingival keratinocytes) was 91.20 and the “effect on growth of planktonic cultures of S. gordonii” value (“effect on growth … of S. gordonii” for short) [4] was “No effect on growth”. For the same molecule, the “effect on growth of planktonic cultures of P. gingivalis” value (from here on “effect on growth … of P. gingivalis”) [5] was “No effect on growth”.
`COc1ccccc1-c1cn(-c2ccc(S(=O)(=O)Cc3nc(-c4ccc(F)cc4)c(-c4ccc(F)cc4)o3)cc2)nn1` [Compound 54] was tested, and the IC50 [2, 7] was 21.2 µM, the “effect on growth … of S. gordonii” value [4] was “No effect on growth” and the “effect on growth … of P. gingivalis” value [5] was “No effect on growth”.
`CCN(CC)c1nc(-c2cn(-c3ccc(-c4nc(-c5ccc(F)cc5)c(-c5ccc(F)cc5)o4)cc3)nn2)nc(N(CC)CC)n1` [Compound 93] was tested, and the IC50 ([2]; Group III) was 9.4 µM, the “effect on growth … of S. gordonii” value [4] was “No effect on growth” and the “effect on growth … of P. gingivalis” value [5] was “No effect on growth”.
For `O=S(=O)(Cc1nc(-c2ccc(Cl)cc2)c(-c2ccc(Cl)cc2)o1)c1ccc(-n2cc(-c3ccc(F)cc3)nn2)cc1` [Compound 56], the IC50 [2, 7] was 6.3 µM, the “effect on growth … of S. gordonii” value [4] was “No effect on growth” and the “effect on growth … of P. gingivalis” value [5] was “No effect on growth”.
With `Fc1ccc(-c2nc(-c3cccc(-n4cc(-c5nc(Nc6ccccc6F)nc(Nc6ccccc6F)n5)nn4)c3)oc2-c2ccc(F)cc2)cc1` [Compound 102] the IC50 ([2]; Group III) was 5 µM, the “effect on growth … of S. gordonii” value [4] was “No effect on growth” and the “effect on growth … of P. gingivalis” value [5] was “No effect on growth”.
With `Fc1ccc(Nc2nc(Nc3ccc(F)cc3)nc(-c3cn(-c4cccc(-c5nc(-c6ccccc6)c(-c6ccccc6)o5)c4)nn3)n2)cc1` [Compound 111] the IC50 ([2]; Group III) was 4.3 µM, the IC50 [2, 6] was 2.3 to 5.3 µM and the “disruption” value ([3]; time treated 1 h) was 0.62. The “disruption” value ([3]; time treated 2 h) was 7.33, the “disruption” value ([3]; time treated 3 h) was 56.63 and the early apoptosis ([1]; 5 μM, gingival keratinocytes) was 4.96. It also gave a late apoptosis ([1]; 5 μM, gingival keratinocytes) of 2.36, a live cells ([1]; 5 μM, gingival keratinocytes) of 89.25 and an early apoptosis ([1]; 20 μM, gingival keratinocytes) of 5.06. For the same molecule, the late apoptosis ([1]; 20 μM, gingival keratinocytes) was 3.39, the live cells ([1]; 20 μM, gingival keratinocytes) was 87.95 and the early apoptosis ([1]; 60 μM, gingival keratinocytes) was 5.60. For the same molecule, the late apoptosis ([1]; 60 μM, gingival keratinocytes) was 4.38 and the live cells ([1]; 60 μM, gingival keratinocytes) was 84.40.
`[O-][S+](Cc1nc(-c2ccc(Cl)cc2)c(-c2ccc(Cl)cc2)o1)c1ccc(-n2cc(-c3cccc(F)c3)nn2)cc1` (stereo not shown) [Compound 49] gave an IC50 [2, 7] of 15.1 µM.
With `Fc1ccc(Nc2nc(Nc3ccc(F)cc3)nc(-c3cn(-c4ccccc4-c4nc(-c5ccco5)c(-c5ccco5)o4)nn3)n2)cc1` [Compound 122] the IC50 ([2]; Group III) was 2.4 µM, the “disruption” value ([3]; time treated 1 h) was 0 and the “disruption” value ([3]; time treated 2 h) was 25.71. The “disruption” value ([3]; time treated 3 h) was 68.82, the early apoptosis ([1]; 5 μM, gingival keratinocytes) was 4.50 and the late apoptosis ([1]; 5 μM, gingival keratinocytes) was 3.95. For the same molecule, the live cells ([1]; 5 μM, gingival keratinocytes) was 88.30, the early apoptosis ([1]; 20 μM, gingival keratinocytes) was 5.93 and the late apoptosis ([1]; 20 μM, gingival keratinocytes) was 2.92. It also gave a live cells ([1]; 20 μM, gingival keratinocytes) of 88.80, an early apoptosis ([1]; 60 μM, gingival keratinocytes) of 7.54 and a late apoptosis ([1]; 60 μM, gingival keratinocytes) of 4.59. For the same molecule, the live cells ([1]; 60 μM, gingival keratinocytes) was 83.65.
For `COc1ccc(-c2nc(-c3ccc(-n4cc(-c5nc(Nc6ccc(F)cc6)nc(Nc6ccc(F)cc6)n5)nn4)cc3)oc2-c2ccc(OC)cc2)cc1` [Compound 121], the IC50 ([2]; Group III) was > 60 µM.
Molecule `CCCCCc1ccc(-c2cn(-c3ccc(S(=O)(=O)Cc4nc(-c5ccccc5)c(-c5ccccc5)o4)cc3)nn2)cc1` [Compound 43] has an IC50 [2, 8] of 36.6 µM.
With `COc1ccc(-c2nc(-c3ccc(-n4cc(-c5nc(Nc6ccccc6F)nc(Nc6ccccc6F)n5)nn4)cc3)oc2-c2ccc(OC)cc2)cc1` [Compound 107] the IC50 ([2]; Group III) was 40 µM.
Work on `[O-][S+](Cc1nc(-c2ccccc2)c(-c2ccccc2)o1)c1ccc(-n2cc(-c3cccc(F)c3)nn2)cc1` (stereo not shown) [Compound 30] yielded an IC50 [2, 8] of 47.3 µM.
`CCN(CC)c1nc(-c2cn(-c3ccc(-c4nc(-c5ccc(Cl)cc5)c(-c5ccc(Cl)cc5)o4)cc3)nn2)nc(N(CC)CC)n1` [Compound 95] was tested, and the IC50 ([2]; Group III) was 3.7 µM, the IC50 [2, 6] was 2.3 to 5.3 µM and the “disruption” value ([3]; time treated 1 h) was 16.47. For the same molecule, the “disruption” value ([3]; time treated 2 h) was 52.84, the “disruption” value ([3]; time treated 3 h) was 81 and the early apoptosis ([1]; 5 μM, gingival keratinocytes) was 5.02. It also gave a late apoptosis ([1]; 5 μM, gingival keratinocytes) of 4.27, a live cells ([1]; 5 μM, gingival keratinocytes) of 88.50 and an early apoptosis ([1]; 20 μM, gingival keratinocytes) of 4.89. For the same molecule, the late apoptosis ([1]; 20 μM, gingival keratinocytes) was 4.26, the live cells ([1]; 20 μM, gingival keratinocytes) was 88.35 and the early apoptosis ([1]; 40 μM, gingival keratinocytes) was 3.80. The late apoptosis ([1]; 40 μM, gingival keratinocytes) was 2.83, the live cells ([1]; 40 μM, gingival keratinocytes) was 91.75 and the “effect on growth … of S. gordonii” value [4] was “No effect on growth”. For the same molecule, the “effect on growth … of P. gingivalis” value [5] was “No effect on growth”.
For `Fc1ccccc1Nc1nc(Nc2ccccc2F)nc(-c2cn(-c3cccc(-c4nc(-c5ccccc5)c(-c5ccccc5)o4)c3)nn2)n1` [Compound 100], the “effect on growth … of S. gordonii” value [4] was “No effect on growth” and the “effect on growth … of P. gingivalis” value [5] was “No effect on growth”.
In the case of `Fc1ccc(-c2nc(-c3ccc(-n4cc(-c5nc(Nc6ccccc6F)nc(Nc6ccccc6F)n5)nn4)cc3)oc2-c2ccc(F)cc2)cc1` [Compound 103], the IC50 ([2]; Group III) is reported as 12.3 µM, the “effect on growth … of S. gordonii” value [4] is reported as “No effect on growth” and the “effect on growth … of P. gingivalis” value [5] is reported as “No effect on growth”.
For `Fc1ccc(Nc2nc(Nc3ccc(F)cc3)nc(-c3cn(-c4cccc(-c5nc(-c6ccc(F)cc6)c(-c6ccc(F)cc6)o5)c4)nn3)n2)cc1` [Compound 114], the IC50 ([2]; Group III) was > 60 µM.
In the case of `CCN(CC)c1nc(-c2cn(-c3cccc(-c4nc(-c5ccc(OC)cc5)c(-c5ccc(OC)cc5)o4)c3)nn2)nc(N(CC)CC)n1` [Compound 96], the IC50 ([2]; Group III) is reported as > 60 µM.
With `CCCCCc1ccc(-c2cn(-c3ccc([S+]([O-])Cc4nc(-c5ccccc5)c(-c5ccccc5)o4)cc3)nn2)cc1` (stereo not shown) [Compound 34] the IC50 [2, 8] was > 60 µM.
`Fc1ccc(Nc2nc(Nc3ccc(F)cc3)nc(-c3cn(-c4cccc(-c5nc(-c6ccco6)c(-c6ccco6)o5)c4)nn3)n2)cc1` [Compound 123] showed an IC50 ([2]; Group III) of 8 µM.
